Data as given in patent US11618743B2, “Herbicidal compounds” (SYNGENTA PARTICIPATIONS AG, priority 2017, dated 2023).

Tests used:
Assay in all cases: Post-emergence efficacy, Method A
Type in all cases: in vivo
Conditions in all cases: Application rate 500 g/Ha; Method A; evaluated after 13 days
[1] = system: Amaranthus palmeri (AMAPA)
Protocol: (§1) Seeds of a variety of test species were sown in standard soil in pots. After cultivation for 14 days (post-emergence) under controlled conditions in a glasshouse (at 24/16° C., day/night; 14 hours light; 65% humidity), the plants were sprayed with an aqueous spray solution derived from the dissolution of the technical active ingredient formula (I) in a small amount of acetone and a special solvent and emulsifier mixture referred to as IF50 (11.12% Emulsogen EL360 TM+44.44% N-methylpyrrolidone+44.44% Dowanol DPM glycol ether), to create a 50 g/l solution which was then diluted to required concentration using 0.25% or 1% Empicol ESC70 (Sodium lauryl ether sulphate)+1% ammonium sulphate as diluent.
(§2) The test plants were then grown in a glasshouse under controlled conditions (at 24/16° C., day/night; 14 hours light; 65% humidity) and watered twice daily. After 13 days the test was evaluated (100=total damage to plant; 0=no damage to plant).
(§3) Ipomoea hederacea (IPOHE), Euphorbia heterophylla (EPHHL), Chenopodium album (CHEAL), Amaranthus palmeri (AMAPA), Lolium perenne (LOLPE), Digitaria sanguinalis (DIGSA), Eleusine indica (ELEIN), Echinochloa crus-galli (ECHCG), Setaria faberi (SETFA)

Setaria faberi (SETFA) = system: Setaria faberi (SETFA)
Protocol: as §1, §2, §3

[2] = system: Digitaria sanguinalis (DIGSA)
Protocol: as §1, §2, §3

Eleusine indica (ELEIN) = system: Eleusine indica (ELEIN)
Protocol: as §1, §2, §3

[3] = system: Echinochloa crus-galli (ECHCG)
Protocol: as §1, §2, §3

[4] = system: Euphorbia heterophylla (EPHHL)
Protocol: as §1, §2, §3

[5] = system: Chenopodium album (CHEAL)
Protocol: as §1, §2, §3

| Structure (SMILES) | Control of weed species AMAPA after post-emergence application (100=total damage to plant; 0=no damage to plant) [1] | Control of weed species SETFA after post-emergence application (100=total damage to plant; 0=no damage to plant) (Setaria faberi (SETFA)) | Control of weed species DIGSA after post-emergence application (100=total damage to plant; 0=no damage to plant) [2] | Control of weed species ELEIN after post-emergence application (100=total damage to plant; 0=no damage to plant) (Eleusine indica (ELEIN)) | Control of weed species ECHCG after post-emergence application (100=total damage to plant; 0=no damage to plant) [3] | Control of weed species EPHHL after post-emergence application (100=total damage to plant; 0=no damage to plant) [4] | Control of weed species CHEAL after post-emergence application (100=total damage to plant; 0=no damage to plant) [5] |
| --- | --- | --- | --- | --- | --- | --- | --- |
| CC(C)OC(=O)CC[n+]1ccc(-c2ncccn2)cn1.O=C([O-])C(F)(F)F [Compound A81, isopropyl 3-(4-pyrimidin-2-ylpyridazin-1-ium-1-yl)propanoate 2,2,2-trifluoroacetate] | 100 | 90 | 100 | 80 | 90 | 100 | 90 |
| CCOC(=O)CC[n+]1ccc(-c2ncccn2)cn1.O=C([O-])C(F)(F)F [Compound A82] | 70 | 60 | 30 | 60 | 30 | 40 | 80 |
| Cc1cncc(-c2cc[n+](CCC(=O)O)nc2)n1.O=C([O-])C(F)(F)F [Compound A85] | 90 | 90 | 90 | 90 | 70 | 100 | 90 |
| O=C(O)CC[n+]1ccc(-c2ccnc(O)n2)cn1.O=C([O-])C(F)(F)F [Compound A86] | 30 | 40 | 30 | 10 | 20 | 50 | 40 |
| O=C(O)CC[n+]1ccc(-c2ccnc(C(F)(F)F)n2)cn1.O=C([O-])C(F)(F)F [Compound A118] | 80 | 70 | 90 | 70 | 40 | 90 | 80 |
| O=C(O)CC[n+]1ccc(-c2cc(C(F)(F)F)ncn2)cn1.O=C([O-])C(F)(F)F [Compound A119] | 100 | 40 | 40 | 30 | 30 | 70 | 100 |
| O=C(O)CC[n+]1ccc(-c2cncc(C(F)(F)F)n2)cn1.O=C([O-])C(F)(F)F [Compound A120] | 90 | 40 | 40 | 30 | 40 | 50 | 70 |
| O=C(O)CC[n+]1ccc(-c2cnc(C(F)(F)F)cn2)cn1.O=C([O-])C(F)(F)F [Compound A121] | 100 | 30 | 40 | 20 | 40 | 80 | 80 |
| O=C(O)CC[n+]1ccc(-c2ccc(C(F)(F)F)nn2)cn1.O=C([O-])C(F)(F)F [Compound A126] | 100 | 100 | 80 | 90 | 80 | 100 | 80 |
| O=C(O)CC[n+]1ccc(-c2ncccc2C(F)(F)F)cn1.O=C([O-])C(F)(F)F [Compound A128] | 30 | 30 | 30 | 50 | 30 | 0 | 10 |
| O=C(O)CC[n+]1ccc(-c2ncc(C(F)(F)F)cn2)cn1.O=C([O-])C(F)(F)F [Compound A129] | 70 | 60 | 60 | 40 | 90 | 70 | 50 |
| Cc1n[n+](CCC(=O)O)ccc1-c1ncccn1.O=C([O-])C(F)(F)F [Compound A132] | 90 | 100 | 90 | 90 | 70 | 30 | 30 |
